Results from patent US20120214847A1, “2-[1-PHENYL-5-HYDROXY-4a-SUBSTITUTED-HEXAHYDROCYCLOPENTA[F]INDAZOL-5-YL]ETHYL PHENYL DERIVATIVES AS GLUCOCORTICOID RECEPTOR LIGANDS” (Merck Sharp & Dohme Corp., priority 2009, published 2012).
Read-outs that look alike come from different tables or passages of the source.

Target: T1, human GR (Homo sapiens, UniProt P04150)
T1 construct: naturally expresses the human GR; endogenous in cells
T1 sequence (P04150 1-777): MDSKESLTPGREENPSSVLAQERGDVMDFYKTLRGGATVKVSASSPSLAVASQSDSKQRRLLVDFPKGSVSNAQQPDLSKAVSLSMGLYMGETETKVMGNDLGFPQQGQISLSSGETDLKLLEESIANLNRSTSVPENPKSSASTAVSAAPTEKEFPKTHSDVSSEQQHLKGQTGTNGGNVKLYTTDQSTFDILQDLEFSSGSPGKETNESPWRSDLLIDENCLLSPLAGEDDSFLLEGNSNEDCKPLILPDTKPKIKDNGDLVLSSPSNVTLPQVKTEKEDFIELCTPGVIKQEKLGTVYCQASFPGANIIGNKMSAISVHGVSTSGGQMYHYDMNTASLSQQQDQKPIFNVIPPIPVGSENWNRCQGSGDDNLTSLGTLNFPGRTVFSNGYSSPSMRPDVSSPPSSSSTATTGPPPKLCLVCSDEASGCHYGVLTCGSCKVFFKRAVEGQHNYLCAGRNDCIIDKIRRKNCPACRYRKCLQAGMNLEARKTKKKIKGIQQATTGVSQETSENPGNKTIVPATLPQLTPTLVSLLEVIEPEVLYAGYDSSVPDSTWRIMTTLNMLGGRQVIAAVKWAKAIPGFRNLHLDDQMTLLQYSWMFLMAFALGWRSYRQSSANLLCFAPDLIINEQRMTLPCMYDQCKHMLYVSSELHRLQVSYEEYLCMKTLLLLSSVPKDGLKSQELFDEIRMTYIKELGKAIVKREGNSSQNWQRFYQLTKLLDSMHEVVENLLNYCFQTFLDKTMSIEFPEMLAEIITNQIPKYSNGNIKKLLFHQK
Assay: Trans-activation modulation of glucocorticoid receptor (GRAMMER), MMTV-LUC reporter in A549 cells
Format: cell-based
Details: for Emax: read-out: Transactivation A549 Cells Grammer Emax (%); for EC50: IP = inflection point, read-out: Transactivation A549 Cells Grammer IP

[1] = A549, A549 cells, Emax relative to the activity obtained with 300 nM dexamethasone
[2] = A549 cells, Emax relative to the activity obtained with 300 nM dexamethasone

Row | Emax [1] | EC50 (A549 cells) | Transactivation A549 Cells Grammer Emax (%) [2] | Structure (SMILES) | Emax [2]
1 | 5% | 42 nM | – | O=S(=O)(c1ccccc1CC[C@]1(O)CCC2=Cc3c(cnn3-c3ccc(F)cc3)C[C@@]21C1CC1)C1CC1 [Example 63, (4aR,5R)-4a-Cyclopropyl-5-{2-[2-(cyclopropylsulfonyl)phenyl]ethyl}-1-(4-fluorophenyl)-1,4,4a,5,6,7-hexahydrocyclopenta[f]indazol-5-ol] | –
2 | 37% | 142 nM | – | CC[C@]12Cc3cnn(-c4ccc(F)cc4)c3C=C1CC[C@@]2(O)CCc1nccc(OC)c1CC(N)=O [Example 64, 2-(2-{2-[(4aS,5R)-4a-Ethyl-1-(4-fluorophenyl)-5-hydroxy-1,4,4a,5,6,7-hexahydrocyclopenta[f]indazol-5-yl]ethyl}-4-methoxypyridin-3-yl)acetamide] | –
3 | 21% | 49 nM | – | CC[C@]12Cc3cnn(-c4ccc(F)cc4)c3C=C1CC[C@@]2(O)CC(O)c1ccccn1 (stereo partly drawn) [Example 68, (4aS,5R)-4a-Ethyl-1-(4-fluorophenyl)-5-[2-hydroxy-2-(pyridin-2-yl)ethyl]-1,4,4a,5,6,7-hexahydrocyclopenta[f]indazol-5-ol] | –
4 | 31% | 83 nM | – | CC[C@]12Cc3cnn(-c4ccc(F)cc4)c3C=C1CC[C@@]2(O)CC(O)c1ncccc1Cl (stereo partly drawn) [Example 70, (4aS,5R)-5-[2-(3-Chloropyridin-2-yl)-2-hydroxyethyl]-4a-ethyl-1-(4-fluorophenyl)-1,4,4a,5,6,7-hexahydrocyclopenta[f]indazol-5-ol] | –
5 | 30% | 78 nM | – | CC[C@]12Cc3cnn(-c4ccc(F)cc4)c3C=C1CC[C@@]2(O)CC1OC(=O)c2ccccc21 (stereo partly drawn) [Example 71, 3-{[(4aS,5R)-4a-Ethyl-1-(4-fluorophenyl)-5-hydroxy-1,4,4a,5,6,7-hexahydrocyclopenta[f]indazol-5-yl]methyl}-2-benzofuran-1(3H)-one] | –
6 | 13% | 187 nM | – | CC[C@]12Cc3cnn(-c4ccc(F)cc4)c3C=C1CC[C@@]2(O)CC(O)c1cc(C#N)ccn1 (stereo partly drawn) [Example 72, 2-{2-[(4aS,5R)-4a-Ethyl-1-(4-fluorophenyl)-5-hydroxy-1,4,4a,5,6,7-hexahydrocyclopenta[f]indazol-5-yl]-1-hydroxyethyl}pyridine-4-carbonitrile] | –
7 | 34% | 101 nM | – | CC[C@]12Cc3cnn(-c4ccc(F)cc4)c3C=C1CC[C@@]2(O)CC(O)c1cncc(F)c1 (stereo partly drawn) [Example 73, (4aS,5R)-4a-Ethyl-1-(4-fluorophenyl)-5-[2-(5-fluoropyridin-3-yl)-2-hydroxyethyl]-1,4,4a,5,6,7-hexahydrocyclopenta[f]indazol-5-ol] | –
8 | 41% | 65 nM | – | CC[C@]12Cc3cnn(-c4ccc(F)cc4)c3C=C1CC[C@@]2(O)CC(O)c1c(F)ccnc1Cl (stereo partly drawn) [Example 74, (4aS,5R)-5-[2-(2-Chloro-4-fluoropyridin-3-yl)-2-hydroxyethyl]-4a-ethyl-1-(4-fluorophenyl)-1,4,4a,5,6,7-hexahydrocyclopenta[f]indazol-5-ol] | –
9 | 10% | 106 nM | – | CC[C@]12Cc3cnn(-c4ccccc4)c3C=C1CC[C@@]2(O)CC(O)c1cc(C#N)ccn1 (stereo partly drawn) [Example 75, 2-{2-[(4aS,5R)-4a-Ethyl-5-hydroxy-1-phenyl-1,4,4a,5,6,7-hexahydrocyclopenta[f]indazol-5-yl]-1-hydroxyethyl}pyridine-4-carbonitrile] | –
10 | 31% | 142 nM | – | CC[C@]12Cc3cnn(-c4ccc(F)cc4)c3C=C1CC[C@@]2(O)CC(O)c1ncccc1F (stereo partly drawn) [Example 76, (4aS,5R)-4a-Ethyl-1-(4-fluorophenyl)-5-[2-(3-fluoropyridin-2-yl)-2-hydroxyethyl]-1,4,4a,5,6,7-hexahydrocyclopenta[f]indazol-5-ol] | –
11 | – | 115 nM | 23% | CC[C@]12Cc3cnn(-c4ccc(F)cc4)c3C=C1CC[C@@]2(O)CC(O)c1ncccc1F (stereo partly drawn) [Example 77, (4aS,5R)-4a-Ethyl-1-(4-fluorophenyl)-5-[2-(3-fluoropyridin-2-yl)-2-hydroxyethyl]-1,4,4a,5,6,7-hexahydrocyclopenta[f]indazol-5-ol] | –
12 | 13% | 66 nM | – | OC(C[C@]1(O)CCC2=Cc3c(cnn3-c3ccc(F)cc3)C[C@@]21C1CC1)c1ccccn1 (stereo partly drawn) [Example 78, (4aR,5R)-4a-Cyclopropyl-1-(4-fluorophenyl)-5-[2-hydroxy-2-(pyridin-2-yl)ethyl]-1,4,4a,5,6,7-hexahydrocyclopenta[f]indazol-5-ol] | –

Row | Structure (SMILES) | Emax [1] | EC50 (A549 cells) | Transactivation A549 Cells Grammer Emax (%) [2] | Emax [2]
13 | CC[C@]12Cc3cnn(-c4ccc(F)cc4)c3C=C1CC[C@@]2(O)CCc1nccc(OC)c1C(F)C(N)=O (stereo partly drawn) [Example 65, 2-(2-{2-[(4aS,5R)-4a-Ethyl-1-(4-fluorophenyl)-5-hydroxy-1,4,4a,5,6,7-hexahydrocyclopenta[f]indazol-5-yl]ethyl}-4-methoxypyridin-3-yl)-2-fluoroacetamide] | – | 175 nM | – | 34%
14 | COc1ccnc(CC[C@]2(O)CCC3=Cc4c(cnn4-c4ccc(F)cc4)C[C@@]32C2CC2)c1C(F)C(N)=O (stereo partly drawn) [Example 66, 2-(2-{2-[(4aR,5R)-4a-Cyclopropyl-1-(4-fluorophenyl)-5-hydroxy-1,4,4a,5,6,7-hexahydrocyclopenta[f]indazol-5-yl]ethyl}-4-methoxypyridin-3-yl)-2-fluoroacetamide] | – | 7 nM | – | 45%
